TGI data for 15 compounds are collected here from PubChem BioAssay (NCI).

Structures are written as SMILES.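 Following 48 hours of exposure in 96-well plates, responses at five concentrations were used to interpolate endpoints linearly. TGI marks complete inhibition of growth.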

Test systems include HOP-92 NSCLC; SNB-75 CNS; HCT-116 colon; DU-145 prostate; MALME-3M melanoma; SK-MEL-28 melanoma; A549 NSCLC; HOP-62 NSCLC; PC-3 prostate; SK-MEL-2 melanoma.
Experiment in all cases: inhibition of tumour cell growth, NCI panel, 48 h

Regarding `N#CC(c1nc2ccccc2s1)c1nc(Cl)ncc1Br` (centres undefined), the TGI with HOP-92 NSCLC is 52 µM; in the assay on SNB-75 CNS, 71 µM; with HCT-116 colon it was 69.8 µM; in the assay with DU-145 prostate it was more than 100 µM; with MALME-3M melanoma, more than 100 µM; in the assay on SK-MEL-28 melanoma, more than 100 µM. Besides, the TGI with A549 NSCLC and in the assay with HOP-62 NSCLC was more than 100 µM in each case.

For the compound `OCc1c2c(cc3c1CC1(C3)Cc3cc4c(c(CO)c3C1)CCC4)CCC2`, the TGI in the assay with HOP-92 NSCLC came to 33.1 µM; in the assay with HCT-116 colon, 26.4 µM; in the assay with MALME-3M melanoma, 30 µM; in the assay on PC-3 prostate, 39.9 µM; in the assay with SK-MEL-2 melanoma, 36.7 µM; in the assay with A549 NSCLC it was 30.9 µM. The compound further gave a TGI in the assay on HOP-62 NSCLC of 29.6 µM.

For the compound `CC(C)=NNc1cnnc2ccc([N+](=O)[O-])cc12`, the TGI with HOP-92 NSCLC, in the assay on SNB-75 CNS, in the assay on HCT-116 colon, in the assay on DU-145 prostate, with MALME-3M melanoma and with PC-3 prostate was more than 100 µM throughout. In addition, the TGI with SK-MEL-2 melanoma and in the assay with A549 NSCLC was more than 100 µM each time.

Turning to `Fc1ccc(C2NC(=S)NC3=C2CCOc2c3ccc3ccccc23)cc1` (centres undefined), the TGI in the assay on HOP-92 NSCLC is more than 100 µM; with SNB-75 CNS it was more than 100 µM; in the assay on HCT-116 colon, 30.1 µM; with DU-145 prostate, more than 100 µM; with MALME-3M melanoma it was more than 100 µM; with PC-3 prostate it was more than 100 µM. The TGI in the assay with SK-MEL-2 melanoma, in the assay on A549 NSCLC and in the assay on HOP-62 NSCLC was more than 100 µM throughout.

`Cc1c(NC(=S)N/N=C\C(=N/NC(=S)Nc2c(C)n(C)n(-c3ccccc3)c2=O)c2ccccc2)c(=O)n(-c2ccccc2)n1C`: the TGI in the assay with HOP-92 NSCLC, in the assay on SNB-75 CNS, in the assay on HCT-116 colon, with DU-145 prostate, in the assay on MALME-3M melanoma and with PC-3 prostate was more than 100 µM in each case. For the same compound, the TGI in the assay with SK-MEL-2 melanoma, in the assay on A549 NSCLC and in the assay on HOP-62 NSCLC was more than 100 µM in each case.

On to `OC12C3C4CC5C(C4[C@@H]1Br)C2[C@@](O)(c1c(F)c(F)c(F)c(F)c1F)C53` (some centres undefined), for which the TGI in the assay with HOP-92 NSCLC is 68.7 µM; in the assay on HCT-116 colon, more than 100 µM; in the assay with DU-145 prostate, more than 100 µM; in the assay with SK-MEL-28 melanoma, more than 100 µM; with PC-3 prostate it was 94.4 µM; with SK-MEL-2 melanoma, 69.2 µM. Besides, the TGI in the assay with A549 NSCLC and with HOP-62 NSCLC was more than 100 µM each time.

`CC(C)(C)OC(=O)NC1CCCC1C(O)(C1=CCCC1)C1=CCCC1` (centres undefined): the TGI in the assay on HOP-92 NSCLC, in the assay on SNB-75 CNS, with HCT-116 colon, with DU-145 prostate, in the assay on SK-MEL-28 melanoma and in the assay with PC-3 prostate was more than 100 µM throughout. In addition, the TGI in the assay on SK-MEL-2 melanoma, in the assay with A549 NSCLC and in the assay on HOP-62 NSCLC was more than 100 µM throughout.

For the compound `CCOC(=O)CN=C1Nc2ccccc2C(=O)N2CSCC12` (centres undefined), the TGI in the assay on SNB-75 CNS, in the assay with HCT-116 colon, with DU-145 prostate, with MALME-3M melanoma, in the assay with SK-MEL-28 melanoma and with PC-3 prostate was more than 100 µM in each case. Also, the TGI in the assay on SK-MEL-2 melanoma, in the assay on A549 NSCLC and with HOP-62 NSCLC was more than 100 µM in each case.

For `c1ccc2c(c1)nc1n2CCNC1`, the TGI in the assay with HOP-92 NSCLC, in the assay with SNB-75 CNS, with HCT-116 colon, in the assay on DU-145 prostate, in the assay with SK-MEL-28 melanoma and in the assay with PC-3 prostate was more than 100 µM throughout. The TGI in the assay on SK-MEL-2 melanoma, with A549 NSCLC and with HOP-62 NSCLC was more than 100 µM throughout.

On to `Cc1ccc(S(=O)(=O)Nc2nc3ccccc3c(=O)n2C2CCCCC2)cc1`, for which the TGI in the assay on HOP-92 NSCLC, with SNB-75 CNS, with HCT-116 colon, in the assay with DU-145 prostate, with SK-MEL-28 melanoma and in the assay on PC-3 prostate was more than 100 µM in each case. In addition, the TGI in the assay with SK-MEL-2 melanoma, in the assay on A549 NSCLC and in the assay with HOP-62 NSCLC was more than 100 µM throughout.

For `COc1ccc(C[C@H]2NC(=O)/C=C/C[C@@H]([C@H](C)[C@H]3O[C@@H]3c3ccccc3)OC(=O)[C@H](CC(C)C)OC(=O)[C@H](C)CNC2=O)cc1`, the TGI was more than 9.19e-05 µM in the assay on SNB-75 CNS; more than 0.0001 µM with HCT-116 colon; more than 8.97e-05 µM in the assay on DU-145 prostate; more than 0.0001 µM in the assay with MALME-3M melanoma; more than 0.0001 µM in the assay with SK-MEL-28 melanoma; more than 0.0001 µM in the assay on PC-3 prostate. Further, the TGI was more than 0.0001 µM in the assay with SK-MEL-2 melanoma, more than 0.0001 µM with A549 NSCLC and more than 7.45e-05 µM in the assay on HOP-62 NSCLC.

With `O=C(Nc1ccc(Cl)cc1)c1cccc([N+](=O)[O-])c1O`, the TGI in the assay with HOP-92 NSCLC worked out at 4.72 µM; in the assay with SNB-75 CNS it was 26.1 µM; with HCT-116 colon, 20 µM; in the assay with MALME-3M melanoma, 9.97 µM; in the assay on SK-MEL-28 melanoma it was 39.6 µM; in the assay on SK-MEL-2 melanoma it was 12.5 µM. In addition, the TGI in the assay with A549 NSCLC is more than 100 µM; in the assay on HOP-62 NSCLC it was 9.13 µM.

Regarding `COc1ccc(-c2cc(C3CC3)nc(SCC(=O)O)c2C#N)cc1`, the TGI in the assay with HOP-92 NSCLC, with SNB-75 CNS, in the assay with HCT-116 colon, in the assay with DU-145 prostate, in the assay on SK-MEL-28 melanoma and in the assay with PC-3 prostate was more than 100 µM throughout. Also, the TGI with SK-MEL-2 melanoma, in the assay on A549 NSCLC and in the assay on HOP-62 NSCLC was more than 100 µM throughout.

For `CC1(C)CC(=O)C2=C(C1)NC(SCC(=O)O)=C(C#N)C2c1ccc(Br)cc1` (centres undefined), the TGI with HOP-92 NSCLC, in the assay with SNB-75 CNS, in the assay on HCT-116 colon, in the assay on DU-145 prostate, with SK-MEL-28 melanoma and in the assay on PC-3 prostate was more than 100 µM throughout. Besides, the TGI in the assay with SK-MEL-2 melanoma, in the assay with A549 NSCLC and with HOP-62 NSCLC was more than 100 µM in each case.

As to `Cc1ccc(C(=O)Cc2nc3ncccc3[nH]c2=O)cc1`, the TGI with HOP-92 NSCLC was 48.1 µM; in the assay with HCT-116 colon, 70.4 µM; with DU-145 prostate it was more than 100 µM; with MALME-3M melanoma, 72.3 µM; with SK-MEL-28 melanoma, 87.4 µM; in the assay with PC-3 prostate, more than 100 µM. Further, the TGI in the assay on SK-MEL-2 melanoma is more than 100 µM; in the assay with A549 NSCLC, 26.7 µM; with HOP-62 NSCLC, 48.4 µM.
